Assay results as given in patent US8399503B2, “Spirocyclic azaindole derivatives” (Gruenenthal GmbH, priority 2006, dated 2013).
Structures can show the parent of a compound that is named as a salt.

Tests used:
human μ-opiate receptor = human μ-opiate receptor (Homo sapiens, UniProt P35372); test: μ binding: [3H]-naloxone displacement, membrane preparation of CHO-K1 cells expressing the human μ-opiate receptor; settings: [3H]-naloxone 1 nmole/l; Cheng-Prusoff conversion; read-out: μ-Opioid receptor, Ki value
Chain of human μ-opiate receptor (P35372 whole entry): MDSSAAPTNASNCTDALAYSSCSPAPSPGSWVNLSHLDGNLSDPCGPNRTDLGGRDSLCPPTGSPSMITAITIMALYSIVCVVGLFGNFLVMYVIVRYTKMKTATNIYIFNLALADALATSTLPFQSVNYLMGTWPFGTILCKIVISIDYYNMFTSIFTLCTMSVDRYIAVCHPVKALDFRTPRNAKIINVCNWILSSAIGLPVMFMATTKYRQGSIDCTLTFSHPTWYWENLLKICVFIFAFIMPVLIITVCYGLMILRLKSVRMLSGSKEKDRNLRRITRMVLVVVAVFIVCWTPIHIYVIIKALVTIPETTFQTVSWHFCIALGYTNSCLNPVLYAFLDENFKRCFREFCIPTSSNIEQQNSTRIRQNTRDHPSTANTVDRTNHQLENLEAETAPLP

Compound | melting point | Ki (human μ-opiate receptor)
CN(C)C1(c2ccccc2)CCC2(CC1)SCCc1c2[nH]c2ncccc12 (stereo not drawn) (as salt: citrate) | 246 to 253 °C | –
CN(C)C1(c2ccccc2)CCC2(CC1)SCCc1c2[nH]c2ccncc12 (stereo not drawn) (as salt: citrate) | 163 to 168 °C | –
c1ccc(CC2(N3CCOCC3)CCC3(CC2)OCCc2c3[nH]c3ncccc23)cc1 (stereo not drawn) [Example 19, 4-benzyl-4-morpholino-spiro[cyclohexane-1,8′-(5,6,8,9-tetrahydropyrano[3,4-b]-7-azaindole)]] | – | 2910 nM
